SMILES strings stand for the structures. Starred links: 1 amine or outer side, 2 acyl side, 3 side chain; linkers in the order of their positions; H or OH if unused. Positions of bridges follow the written chain, without caps; N, C: chain ends. Non-standard residues stand in square brackets, D forms with d. Residues, ends and D or L forms follow the SMILES beside them. *: point of attachment. Leu(3R-OH,Nα-propionyl) = CCC(=O)N[C@H](C(=O)*)[C@H](O)C(C)C; X1 = CC(C)[C@@H](O[*:3])[C@H](N[*:1])C(=O)[*:2]; X2 = CC(C)[C@H](O[*:3])[C@@H](N[*:1])C(=O)[*:2]; NMeaThr = CN[C@H](C(=O)O)[C@H](C)O; dPhLac = O=C(O)[C@H](O)Cc1ccccc1; NMeA = CN[C@@H](C)C(=O)O; NMeDha = C=C(NC)C(=O)O

Assay [1] addresses T1, constitutively active Gα13 with the RGS domain of LARG (Homo sapiens, UniProt Q14344, Q226L).
T1 construct: expressed in transfected cells; host or cells: HEK-293
T1 sequence (Q14344 1-377 Q226L): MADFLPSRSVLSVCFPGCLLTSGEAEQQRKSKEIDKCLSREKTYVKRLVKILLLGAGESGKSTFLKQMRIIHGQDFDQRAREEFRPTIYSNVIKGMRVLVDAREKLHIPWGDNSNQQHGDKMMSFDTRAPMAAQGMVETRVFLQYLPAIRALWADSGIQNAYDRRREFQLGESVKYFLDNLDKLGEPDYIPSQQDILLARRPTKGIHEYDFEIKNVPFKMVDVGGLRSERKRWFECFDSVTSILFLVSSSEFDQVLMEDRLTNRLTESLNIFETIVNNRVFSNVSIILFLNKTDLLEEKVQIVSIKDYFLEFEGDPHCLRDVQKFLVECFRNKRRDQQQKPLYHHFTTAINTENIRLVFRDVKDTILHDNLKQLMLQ
Nature of the assay: Split luciferase complementation, Gα interaction with RGS domain of LARG. It counts as cell-based. The note with it: FIG. 1C. From the text:
(FIG. 1A-1C) depicts the effect of FR on the activity state of Gα subunits as determined by interaction with Gβγ or RGS domains in split luciferase complementation assays. FIG. 1A Effect of FR on interaction of Gβγ2 with the indicated wild type (WT) or mutant constitutively active (Q/L) forms of Gα (q) or Gα13 (13). * p<0.01; ** p<0.05. FIG. 1B Potency of FR as a driver of interaction of Gβγ2 with wild type or mutant constitutively active Gαq. FIG. 1C Potency of FR as inhibitor of interaction of RGS2 with mutant constitutively active (Q/L) Gαq, or interaction of the RGS domain of LARG (LARG-RGS) with mutant constitutively active Gα13. FIG. 1D Potency of FR as inhibitor of signal transduction by constitutively active Gαq or Gα13 detected with an SRE(L) promoter-driven transcriptional reporter. Constitutively active Gαq (Q/L), constitutively active Gαq bearing the indicated FR binding site mutations, and constitutively Gα13 (Q/L) were studied.
To detect protein-protein interactions, a split luciferase complementation assays was used (23), as employed to study activation state-dependent interaction between Gα subunits and cognate binding partners (24).
Split luciferase assays were performed as described (24). […]

A further assay relates to 92.1 cells. Nature of the assay: YAP-driven transcriptional reporter. The format is cell-based. As to conditions: Homo sapiens, FIG. 6B, read-out: EC50, increase in expression of YAP-driven transcriptional reporter. The method, then: (§1) Expression data from two experimental replicates are mean-centered; the color gradient corresponds to difference in log 2 ratio of expression from the mean, such that 0.5 versus −0.5 is a total difference of 2-fold in unlogged expression.
(§2) Assays of transcriptional reporters driven by YAP or Gα subunits were performed as described (42, 43). YAP- or Ga-driven firefly luciferase activity was normalized to Renilla luciferase expressed from a constitutive promoter.

Assay [2] concerns Mel202 cells. Nature of the assay: YAP-driven transcriptional reporter. The format is cell-based. The note with it: Homo sapiens, FIG. 6B, read-out: EC50, increase in expression of YAP-driven transcriptional reporter. The method, then:
as §1, §2

Assay [3] has as its system Mel202 cells. Description: qPCR validation of FR target genes. It counts as cell-based, Human. As to conditions: FR-treated Mel202 cells; FIG. 10. The method, then: More important, 42% of genes in this cluster are known targets of the polycomb repressive complex 2 (PRC2) during differentiation from embryonic stem cells (FIG. 7D and Table 5), as indicated by gene set enrichment analysis.
92.1 UM cells were treated with 100 nM FR or vehicle (DMSO) in RPMI growth medium and collected after 1 and 3 d of treatment. RNA was isolated using the RNeasy Mini Kit (Qiagen) following the manufacturer's protocol and including the optional DNase I treatment step. RNA quality was assessed on a Bioanalyzer 2100 (Agilent Technologies, Santa Clara, Calif., USA). mRNA was extracted from total RNA using a Dynal mRNA Direct kit, fragmented and reverse transcribed to double stranded cDNA with random primers before addition of adapters for library preparation. Library preparation and HiSeq2500 sequencing were performed by the Washington University Genome Technology Access Center (gtac.wustl.edu). FastQ files were aligned to the transcriptome and the whole-genome with STAR. Biologic replicates were simultaneously analyzed by edgeR and Sailfish analyses of gene-level/exon-level features. […] Significant gene sets from GSEA analyses were combined such that genes associated with multiple related signatures were only counted once and each gene was assigned only to a single combined groupbased on the signature with the highest enrichment score for that gene. […]
(In qPCR the cycle at which signal appears reflects the starting amount.)

A further assay relates to Mel202 UM cells. Description: UM cell viability, water-soluble tetrazolium salt assay. As to conditions: Homo sapiens, Mel202, read-out: EC50, inhibition of proliferation (viability).
Another assay concerns 92.1 UM cells. The description is as above. The note with it: Homo sapiens, read-out: EC50, inhibition of proliferation (viability).
Assay [4] deals with OCM-1A cells. Described as above. The note with it: even at high concentration (10 μM).
Description: (§3) Cells were cultured at 37.0 in 5% CO2. […] Cell lines were grown in RPMI 1640 medium (Life Technologies, Carlsbad, Calif.) supplemented with 10% FBS and antibiotics. Cell viability was measured using a water-soluble tetrazolium salt, WTS-8 (Bimake, Houston, Tex.), following the manufacturer's protocol. Flow cytometry for analysis of cell proliferation and apoptosis was performed at the Siteman Cancer Center Flow Cytometry Core on a FACScan analyzer (BD Biosciences, San Diego Calif., USA) using a standard propidium iodide staining protocol as described previously (44).
The subject of assay [5] is OCM-1A cells. Description: Flow cytometry of DNA content (proliferation and apoptosis). The note with it: 3 d, FIG. 4C-D.
Description: Cells were cultured at 37.0 in 5% CO2. […] Cell lines were grown in RPMI 1640 medium (Life Technologies, Carlsbad, Calif.) supplemented with 10% FBS and antibiotics. […] Flow cytometry for analysis of cell proliferation and apoptosis was performed at the Siteman Cancer Center Flow Cytometry Core on a FACScan analyzer (BD Biosciences, San Diego Calif., USA) using a standard propidium iodide staining protocol as described previously (44).

Description for 92.1 UM cells: as §3
Description for Mel202 UM cells: as §3

As to `C=C1C(=O)N[C@@H](C)C(=O)N(C)[C@@H](C)C(=O)N[C@H]([C@@H](OC(=O)[C@@H](NC(=O)CC)[C@H](O)C(C)C)C(C)C)C(=O)N(C)[C@@H]([C@H](C)OC)C(=O)O[C@H](C(C)C)[C@H](NC(C)=O)C(=O)O[C@H](Cc2ccccc2)C(=O)N1C` [FR, [(1S)-1-[(3S,6R,9S,12S,18R,21S,22R)-21-acetamido-18-benzyl-3-[(1S)-1-methoxyethyl]-4,9,10,12,16-pentamethyl-15-methylidene-2,5,8,11,14,17,20-heptaoxo-22-propan-2-yl-1,19-dioxa-4,7,10,13,16-pentazacyclodocos-6-yl]-2-methylpropyl] (2S,3R)-3-hydroxy-4-methyl-2-(propanoylamino)pentanoate] (Ac-[X1][dPhLac][NMeDha]A[NMeA][X2](Leu(3R-OH,Nα-propionyl))[NMeaThr](Me); ester 1-C), in assay [1], the “effect on interaction with the RGS domain of LARG” value is listed as “lack of effect”. For the same molecule, the EC50 came to 3 nM in the assay on 92.1 cells, 0.8 nM in the assay with Mel202 cells [2], 6 nM in the assay on Mel202 UM cells and 2 nM in the assay on 92.1 UM cells. For the same molecule, the “RNA-Seq downregulation results checked by quantitative RT-PCR” value in the assay with Mel202 cells [3] is reported as “confirmed”. For the same molecule, in the assay with OCM-1A cells [4], the effect on proliferation result is “no effect”. Moreover, the “cell cycle inhibition and apoptosis” value in the assay on OCM-1A cells [5] is “no effect”.

Source of the values: patent US20230130103A1, “TARGETED PHARMACOLOGICAL THERAPEUTICS IN UVEAL MELANOMA” (Washington University, priority 2017, published 2023).
